# Measured values from patent publication US6429204B1, “Method of inhibiting cancer growth” (University of Miami, priority 1997, dated 2002).
# Experiments:
# [1] = system: MMP-9 (gelatinase B) expressed by E-10 cells; test: MMP protein expression by Western blot of conditioned medium, E-10 cells; type: cell-based, human; settings: 24 hr, serum-free medium
# Description: Two human cancer-derived cell lines were obtained from the American Type Culture Collection (ATCC) in Rockville, Md. The cell lines included COLO 205, a human colon cancer-derived cell line that expresses MMP-2 or gelatinase A, and E-10, a human breast cancer-derived cell line that expresses MMP-9 or gelatinase B.
# Cells of each cell line were cultured in 75 cm^2 T-flasks in RPMI-1640 (Gibco) with 10% heat-inactivated fetal bovine serum (FBS) containing 100 units/mL penicillin and 100 μg/mL streptomycin. The cells were fed every two days, and passaged every week. The cells were grown to 80-90% confluence, and then the FBS-containing medium was replaced with a serum-free medium (SFM). CMT-3 (CollaGenex Pharmaceuticals, Inc., Newtown, Pa.) was added in several concentrations to the cells in SFM. Conditioned medium was collected after 24 hr, centrifuged to remove cell debris, and then assayed for MMP protein expression by Western blot using a conventional technique, and scanning the blots with a laser densitometer.
# [2] = system: gelatinase A (MMP-2); test: Gelatin zymography of conditioned media of TSU PR1 and MAT LyLu cells, MMP-2; type: cell-based; settings: 48 hours, serum-free medium
# Description: Next we examined whether CMT-3 and doxycycline differentially affect the production of two major classes of gelatinases: gelatinase A (MMP-2) and gelatinase B (MMP-9). Confluent cultures of TSU PR1 and MAT LyLu cells were incubated with various concentrations of doxycycline and CMT-3 for 48 hours in serum-free medium. The conditioned media were then analyzed for MMPs by zymography as described below.
# Conditioned media were collected from the cultures that had been treated with doxycycline or CMT-3 for 2 days. Media were then incubated with SDS-gel electrophoresis sample buffer for 30 min at room temperature, and then analyzed by gel electrophoresis on SDS-polyacrylamide gel (8%) containing gelatin (1 mg/mL). Following electrophoresis, the gels were washed twice with 0.25% TRITON® X100 for 30 min each, and incubated for 18 hr at 37° C. in an MMP digestion buffer comprising 20 mM Tris-HCl, pH 7.4, containing 30 mM NaCl, 1 mM PMSF, 10 mM CaCl2, 2 μM ZnSO4, 0.005% Brij35, and 0.02 NaN3 (Lokeshwar 1993a). After incubation, the gels were briefly rinsed in distilled water and stained with 0.25% Coomassie brilliant blue R250 prepared in 40% isopropanol solution for 1 hr. Gels were destained with 7% acetic acid. the locations of MMPs in the gels were visible as clear areas on a blue background, indicative of digested gelatin.
# [3] = system: DU-145 and TSU-PR1 prostate cancer cell lines; test: Prostate cancer cell viability/proliferation (trypan blue, MTT); type: cell-based, human; settings: Homo sapiens; 48 hr exposure; read-out: 50% inhibition dose (IC50), cell proliferation
# Text: To determine the cytotoxicity of CMTs on prostate tumor cell lines, TSU-PR1 cells (and cells of other tumor cell lines) were exposed to various CMTs or to doxycycline for 24 hr or 48 hr in a complete medium. Cell viability (percent of live cells) was estimated by counting the cells following trypan blue staining. Cellular viability was also estimated by the tetrazolium dye reduction assay (MTT assay) (Lokeshwar et al. 1995b). Due to the aggressive proliferative capacity of cancer cells, it is assumed that viable cells are actively proliferating. Therefore, the measurement of viability was used as an estimate of proliferation. Results are expressed as Mean±SEM from three separate experiments.
# [4] = system: Dunning MAT LyLu cells; test: Cytotoxic effect on MAT LyLu cells (trypan blue); type: cell-based, rat; settings: 24 hr or 48 hr exposure
# Description: Cell viability was estimated by trypan blue staining following exposure to the drugs. The results of these studies are summarized in FIG. 4A (24 hours) and FIG. 4B (48 hr). Data are presented as Mean±SEM from three separate experiments.
# [5] = target: T1, Gelatinase B (Homo sapiens, UniProt P14780); test: Zymography with densitometry of C8161 conditioned medium, gelatinase B; type: cell-based; settings: 50 μg/mL, 24 hr
# T1 construct: endogenous in cells; host or cells: C8161
# Description: Six hundred thousand (6×10^5) C8161 cells were seeded per well in a 12-well dish coated with a laminin/collagen IV/gelatin matrix in DMEM plus Mito+ and 0.1% gentamicin sulfate. After approximately 1 hr incubation to allow the cells to attach, 50 μg/mL of either doxycycline or one of the other CMTs was added per well and the dish then placed in a 37° C. humidified 5% CO2 incubator. After 24 hr, the supernatants were removed and centrifuged to remove any cells or debris. One volume of Laemmli sample buffer minus reductant was added to two volumes of the medium, and this sample electrophoresed without prior heating or boiling on a 10% SDS-PAGE containing 0.1% gelatin (samples normalized based on the same number of cells per volume of medium per time of incubation). After electrophoresis, the gels were washed with gentle shaking at room temperature for 30 min in 50 mM Tris-HCl (pH 7.5) plus 2.5% TRITON® X100 plus 50 μg/mL of the corresponding CMT used in the original treatment. The gel was then placed in incubation buffer (50 mM Tris-Cl/10 mM CaCl2/150 mM NaCl/0.05% NaN3) also containing 50 μg/mL of the corresponding CMT, and incubated at 37° C. for 20-24 hr. The gels were stained with Coomassie BBR-250, then destained with 10% methanol/10% acetic acid in water until the wash remained clear. A photographic negative of the gel was digitized using a video camera and Snappy Video Snapshot system (Play Inc., Rancho Cordova, Calif.). An integrated density was determined for each of the cleared zones of proteolysis using the software ImagePC8α (freely available from the National Institutes of Health), and the corresponding changes in gelatinolytic activities reported compared to the control samples normalized to a value of 1.0.
# T1 sequence (P14780 94-707): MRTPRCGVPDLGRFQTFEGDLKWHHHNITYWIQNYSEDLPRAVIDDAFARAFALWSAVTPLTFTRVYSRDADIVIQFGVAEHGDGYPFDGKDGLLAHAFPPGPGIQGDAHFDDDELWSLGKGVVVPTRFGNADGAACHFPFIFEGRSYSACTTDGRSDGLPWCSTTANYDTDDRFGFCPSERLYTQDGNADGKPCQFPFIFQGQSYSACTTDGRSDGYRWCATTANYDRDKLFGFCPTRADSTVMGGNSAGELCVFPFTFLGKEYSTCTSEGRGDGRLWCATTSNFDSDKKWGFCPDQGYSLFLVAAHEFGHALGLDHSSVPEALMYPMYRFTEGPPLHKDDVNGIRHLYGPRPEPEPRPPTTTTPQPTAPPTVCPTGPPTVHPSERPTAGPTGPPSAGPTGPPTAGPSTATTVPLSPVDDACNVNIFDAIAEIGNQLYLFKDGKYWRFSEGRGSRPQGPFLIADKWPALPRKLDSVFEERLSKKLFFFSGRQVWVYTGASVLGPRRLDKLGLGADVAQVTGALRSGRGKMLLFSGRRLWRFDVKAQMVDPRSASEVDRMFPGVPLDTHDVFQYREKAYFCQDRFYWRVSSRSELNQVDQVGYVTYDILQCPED
structure (smiles),measurement,setting,value
"NC(=O)C1=C(O)CC2CC3Cc4cccc(O)c4C(=O)C3=C(O)C2(O)C1=O (stereo not drawn) [CMT-3, 6-demethyl-6-deoxy-4-de(dimethylamino)tetracycline]",Percent Inhibition of MMP Protein Expression,"[1]; E-10, MMP-9, 10 μM",45.3%
same,Percent Inhibition of MMP Protein Expression,"[1]; E-10, MMP-9, 20 μM",60.8%
same,MMP-2 levels in conditioned media (zymography),[2],decreased MMP-2 and MMP-9 levels at a lower concentration than did doxycycline
same,IC50,[3],2.7 µg/mL
same,inhibition of cell proliferation (rank among tested drugs),[4],most effective inhibitors of cell proliferation
same,"Gelatinase B, integrated density normalized to control 1.00",[5],0.03
